In US12577231B2, “Androgen receptor PROTACS” (GlaxoSmithKline Intellectual Property Development Limited, priority 2023, dated 2026) one finds Dmax data, which are given here for 13 compounds.

Bounds are passed on as bounds.

This assay addresses T1, Androgen Receptor dual T878A/L702H mutant protein (Homo sapiens, UniProt P10275, L702H/T878A).
T1 construct: host or cells: MDA-PCa-2b
T1 sequence (P10275 1-920 L702H/T878A): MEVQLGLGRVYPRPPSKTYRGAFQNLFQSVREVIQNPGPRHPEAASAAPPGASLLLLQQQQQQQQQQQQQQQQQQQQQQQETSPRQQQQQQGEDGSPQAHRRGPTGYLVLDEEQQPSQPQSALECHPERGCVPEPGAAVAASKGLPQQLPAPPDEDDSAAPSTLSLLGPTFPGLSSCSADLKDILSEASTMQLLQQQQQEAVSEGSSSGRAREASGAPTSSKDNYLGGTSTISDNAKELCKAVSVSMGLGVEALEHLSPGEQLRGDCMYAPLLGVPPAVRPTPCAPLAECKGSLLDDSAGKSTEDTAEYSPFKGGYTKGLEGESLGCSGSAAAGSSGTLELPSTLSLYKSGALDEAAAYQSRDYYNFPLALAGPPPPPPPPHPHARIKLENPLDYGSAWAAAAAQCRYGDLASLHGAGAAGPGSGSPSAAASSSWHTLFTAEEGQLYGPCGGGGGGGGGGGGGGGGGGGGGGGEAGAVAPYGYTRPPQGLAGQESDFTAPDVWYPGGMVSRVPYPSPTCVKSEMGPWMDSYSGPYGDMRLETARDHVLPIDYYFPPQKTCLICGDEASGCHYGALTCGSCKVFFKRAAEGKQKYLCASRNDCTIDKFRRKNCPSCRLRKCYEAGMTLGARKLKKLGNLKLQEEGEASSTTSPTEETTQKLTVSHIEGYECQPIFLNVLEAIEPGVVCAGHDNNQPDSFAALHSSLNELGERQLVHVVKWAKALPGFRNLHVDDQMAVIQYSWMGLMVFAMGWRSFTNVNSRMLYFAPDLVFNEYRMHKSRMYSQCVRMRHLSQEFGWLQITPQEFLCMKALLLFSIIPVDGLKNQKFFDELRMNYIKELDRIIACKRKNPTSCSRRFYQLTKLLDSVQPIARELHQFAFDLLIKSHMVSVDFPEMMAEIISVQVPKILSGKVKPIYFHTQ
Description: Dual Mutant (T878A/L702H) Androgen Receptor Degradation Assay (HTRF, MDA-PCa-2b cells). It counts as cell-based. The conditions noted are these: 18 h, 18 h incubation, read-out: mean asymptote max. Here is the method:
Degradation of Androgen Receptor dual T878A/L702H mutant protein in human MDA-PCa-2b (ATCC) cells treated with PROTACs was quantified using the HTRF Human Androgen Receptor Detection Kit (PerkinElmer) in 384 well assay plate format. 10 mM DMSO (Sigma-Aldrich) stock solutions of PROTACs were prepared and diluted across an 11 concentration, 3-fold increment range, and 25 nL dispensed into a white opaque bottomed 384 well assay plate (Thermofisher) using an acoustic ECHO dispenser (Labcyte). Cells were cultured in growth medium (BRFF—HPC-1 (Athena ES) supplemented with 20% FBS (Gibco), penicillin 50U/mL and streptomycin 50 μg/mL (Gibco, #15140-122)) in collagen I or poly-D-lysine coated T175 flasks (Corning, #356487 or #356539, respectively). For the assay, cells were harvested from the flask, centrifuged at 200 g for 5 min and then resuspended in the growth medium. 25 μl of cell suspension containing 10,000 cells was dispensed into each well of the assay plate containing the test compounds, which was then incubated for 18 h at 37° C./5% CO2. Control wells were included on each assay plate, with assay medium without cells being the no AR remaining 100% effect control, and cells treated with DMSO vehicle only, without PROTAC, the 0% effect control. After 18 h incubation 8 μl of supplemented lysis buffer from HTRF kit was added to each well and the plate shaken at 500 rpm for 1 h at room temperature. 8 μl of antibody mix in Detection buffer from HTRF kit was added to each well and the plate was incubated for 2 h in dark at mom temperature. The fluorescence was measured at both 620 nm and 665 nm using an excitation wavelength of 337 nm with a PHERAstar microplate reader (BMG Labtech) and the % AR protein remaining in each well was calculated by normalising the HTRF ratio (665 nm signal/620 nm signal) value to the control wells mentioned above. Parameters corresponding to the potency and efficacy estimates of the PROTACs were obtained from these normalised values using curve fitting software (IDBS ActivityBase). These included the DC50 and the Dmax estimates. Two versions of the DC50, called relative DC50 and absolute DC50, were typically generated. These are the inflection point of a fitted 4 parameter sigmoidal response curve and the interpolated concentration of PROTAC corresponding to 50% of the protein being degraded, respectively. The Dmax parameter was the maximum experimentally observed degradation and the asymptote max parameter the fitted response curve asymptote maximum.
`CC1(C)[C@H](NC(=O)c2ccc(N3CCC(CN4CCC(n5ncc6c(N7CCC(=O)NC7=O)cccc65)CC4)CC3)c(F)c2)C(C)(C)[C@H]1Oc1cnc(C#N)c(Cl)c1` [Example 3, N-((1r,3r)-3-((5-Chloro-6-cyanopyridin-3-yl)oxy)-2,2,4,4-tetramethylcyclobutyl)-4-(4-((4-(4-(2,4-dioxotetrahydropyrimidin-1(2H)-yl)-1H-indazol-1-yl)piperidin-1-yl)methyl)piperidin-1-yl)-3-fluorobenzamide]: the Dmax was not below 50%. Turning to `COc1c(C#N)ccc(O[C@H]2C(C)(C)[C@H](NC(=O)c3ccc(N4CCC(CN5CCC(n6ncc7c(N8CCC(=O)NC8=O)cccc76)CC5)CC4)c(F)c3)C2(C)C)c1C` [Example 5, N-((1r,3r)-3-(4-Cyano-3-methoxy-2-methylphenoxy)-2,2,4,4-tetramethylcyclobutyl)-4-(4-((4-(4-(2,4-dioxotetrahydropyrimidin-1(2H)-yl)-1H-indazol-1-yl)piperidin-1-yl)methyl)piperidin-1-yl)-3-fluorobenzamide], the Dmax is not below 50%. The result for `CC1(C)[C@H](NC(=O)c2ccc(N3CCC(CN4CCC(n5ncc6c(N7CCC(=O)NC7=O)cccc65)CC4)CC3)c(F)c2)C(C)(C)[C@H]1Oc1ccc(C#N)c2ncccc12` [Example 6, N-((1r,3r)-3-((8-Cyanoquinolin-5-yl)oxy)-2,2,4,4-tetramethylcyclobutyl)-4-(4-((4-(4-(2,4-dioxotetrahydropyrimidin-1(2H)-yl)-1H-indazol-1-yl)piperidin-1-yl)methyl)piperidin-1-yl)-3-fluorobenzamide] reads not below 50%. With `CC1(C)[C@H](NC(=O)c2ccc(N3CCC(CN4CCC(n5ncc6c(N7CCC(=O)NC7=O)cccc65)CC4)CC3)c(F)c2)C(C)(C)[C@H]1Oc1ccc(C#N)c2c1CCCO2` [Example 8, N-((1r,3r)-3-((8-Cyanochroman-5-yl)oxy)-2,2,4,4-tetramethylcyclobutyl)-4-(4-((4-(4-(2,4-dioxotetrahydropyrimidin-1(2H)-yl)-1H-indazol-1-yl)piperidin-1-yl)methyl)piperidin-1-yl)-3-fluorobenzamide], the Dmax was not below 50%. `CC1(C)[C@H](NC(=O)c2ccc(N3CCC(CN4CCC(n5ncc6c(N7CCC(=O)NC7=O)c(F)ccc65)CC4)CC3)c(F)c2)C(C)(C)[C@H]1Oc1ccc(C#N)c(Cl)c1` [Example 13, N-((1r,3r)-3-(3-Chloro-4-cyanophenoxy)-2,2,4,4-tetramethylcyclobutyl)-4-(4-((4-(4-(2,4-dioxotetrahydropyrimidin-1(2H)-yl)-5-fluoro-1H-indazol-1-yl)piperidin-1-yl)methyl)piperidin-1-yl)-3-fluorobenzamide]: the Dmax is not below 50%. For the compound `COc1cc(O[C@H]2C(C)(C)[C@H](NC(=O)c3ccc(N4CCC(CN5CCC(n6ncc7c(N8CCC(=O)NC8=O)cccc76)CC5)CC4)cc3)C2(C)C)ccc1C#N` [Example 15, N-((1r,3r)-3-(4-Cyano-3-methoxyphenoxy)-2,2,4,4-tetramethylcyclobutyl)-4-(4-((4-(4-(2,4-dioxotetrahydropyrimidin-1(2H)-yl)-1H-indazol-1-yl)piperidin-1-yl)methyl)piperidin-1-yl)benzamide], the Dmax is not below 50%.

For `COc1cc(O[C@H]2C(C)(C)[C@H](NC(=O)c3ccc(N4CCC(CN5CCC(n6ccc7c(N8CCC(=O)NC8=O)cccc76)CC5)CC4)cc3)C2(C)C)ccc1C#N` [Example 16, N-((1r,3r)-3-(4-Cyano-3-methoxyphenoxy)-2,2,4,4-tetramethylcyclobutyl)-4-(4-((4-(4-(2,4-dioxotetrahydropyrimidin-1(2H)-yl)-1H-indol-1-yl)piperidin-1-yl)methyl)piperidin-1-yl)benzamide], the Dmax was not below 50%. As for `COc1cc(O[C@H]2C(C)(C)[C@H](NC(=O)c3ccc(N4CCC(CN5CC[C@@H](n6ncc7c(N8CCC(=O)NC8=O)cccc76)[C@@H](F)C5)CC4)c(F)c3)C2(C)C)ccc1C#N` [Example 27, N-((1r,3r)-3-(4-Cyano-3-methoxyphenoxy)-2,2,4,4-tetramethylcyclobutyl)-4-(4-(((3,4R)-4-(4-(2,4-dioxotetrahydropyrimidin-1(2H)-yl)-1H-indazol-1-yl)-3-fluoropiperidin-1-yl)methyl)piperidin-1-yl)-3-fluorobenzamide], the Dmax was not below 50%. Turning to `CC1(C)[C@H](NC(=O)c2ccc(N3CCC(CN4CCC(n5ccc6c(N7CCC(=O)NC7=O)ncnc65)CC4)CC3)cc2)C(C)(C)[C@H]1Oc1ccc(C#N)c2ncccc12` [Example 28, N-((1r,3r)-3-((8-Cyanoquinolin-5-yl)oxy)-2,2,4,4-tetramethylcyclobutyl)-4-(4-((4-(4-(2,4-dioxotetrahydropyrimidin-1(2H)-yl)-7H-pyrrolo[2,3-d]pyrimidin-7-yl)piperidin-1-yl)methyl)piperidin-1-yl)benzamide], the Dmax is not below 50%.

`CC1(C)[C@H](NC(=O)c2ccc(N3CCC(CN4CCC(n5ccc6c(N7CCC(=O)NC7=O)cccc65)CC4)CC3)c(F)c2)C(C)(C)[C@H]1Oc1ccc(C#N)c2ncccc12` [Example 31, N-((1r,3r)-3-((8-Cyanoquinolin-5-yl)oxy)-2,2,4,4-tetramethylcyclobutyl)-4-(4-((4-(4-(2,4-dioxotetrahydropyrimidin-1(2H)-yl)-1H-indol-1-yl)piperidin-1-yl)methyl)piperidin-1-yl)-3-fluorobenzamide]: the Dmax is not below 50%.

Turning to `CC1(C)[C@H](NC(=O)c2ccc(N3CCC(CN4CCC(n5ccc6c(N7CCC(=O)NC7=O)cc(F)cc65)CC4)CC3)c(F)c2)C(C)(C)[C@H]1Oc1ccc(C#N)c2ncccc12` [Example 32, N-((1r,3r)-3-((8-Cyanoquinolin-5-yl)oxy)-2,2,4,4-tetramethylcyclobutyl)-4-(4-((4-(4-(2,4-dioxotetrahydropyrimidin-1(2H)-yl)-6-fluoro-1H-indol-1-yl)piperidin-1-yl)methyl)piperidin-1-yl)-3-fluorobenzamide], the Dmax was not below 50%. On to `CC1(C)[C@H](NC(=O)c2ccc(N3CC[C@@H](CN4CCC(n5ncc6c(N7CCC(=O)NC7=O)cccc65)CC4)C3)c(F)c2)C(C)(C)[C@H]1Oc1ccc(C#N)c2ncccc12` [Example 33, N-((1r,3S)-3-((8-Cyanoquinolin-5-yl)oxy)-2,2,4,4-tetramethylcyclobutyl)-4-((S)-3-((4-(4-(2,4-dioxotetrahydropyrimidin-1(2H)-yl)-1H-indazol-1-yl)piperidin-1-yl)methyl)pyrrolidin-1-yl)-3-fluorobenzamide], for which the Dmax was not below 50%. The result for `CC1(C)[C@H](NC(=O)c2ccc(N3CC[C@H](CN4CCC(n5ncc6c(N7CCC(=O)NC7=O)cccc65)CC4)C3)c(F)c2)C(C)(C)[C@H]1Oc1ccc(C#N)c2ncccc12` [Example 34, N-((1r,3R)-3-((8-Cyanoquinolin-5-yl)oxy)-2,2,4,4-tetramethylcyclobutyl)-4-((R)-3-((4-(4-(2,4-dioxotetrahydropyrimidin-1(2H)-yl)-1H-indazol-1-yl)piperidin-1-yl)methyl)pyrrolidin-1-yl)-3-fluorobenzamide] reads not below 50%.
